# “And” between values parts separate entries of the source, which are not always exact repeats. Equal entries are not always repeated. Where two headings read alike, the source gives them in different places. Where a SMILES comes first, the peptide text is derived from it.
# Assays:
# Sc Ste2 = biological target: T1, Sc Ste2 (Saccharomyces cerevisiae, UniProt D6VTK4); assay type: cell-based
# T1 construct: The native Sc system and an empty construct were added as positive and negative controls; endogenous in cells; host or cells: Saccharomyces cerevisiae wild-type control strains GEN18 (MATa) and GEN27 (MATα)
# T1 sequence (D6VTK4 1-431): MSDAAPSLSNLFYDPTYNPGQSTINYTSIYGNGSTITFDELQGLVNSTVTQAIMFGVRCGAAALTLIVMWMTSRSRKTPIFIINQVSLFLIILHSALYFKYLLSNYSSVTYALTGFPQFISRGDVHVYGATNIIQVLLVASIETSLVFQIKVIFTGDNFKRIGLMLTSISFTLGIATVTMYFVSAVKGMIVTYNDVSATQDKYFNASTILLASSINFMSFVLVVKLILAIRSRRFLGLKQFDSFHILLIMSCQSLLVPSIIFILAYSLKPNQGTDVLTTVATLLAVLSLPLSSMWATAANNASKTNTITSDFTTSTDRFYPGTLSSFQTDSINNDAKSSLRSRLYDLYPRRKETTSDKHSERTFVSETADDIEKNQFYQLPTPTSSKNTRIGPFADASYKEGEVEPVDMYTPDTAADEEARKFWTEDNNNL
# Bb.Ste2 [1] = assay type: cell-based, Beauveria bassiana; conditions: for Diploid frequency (%): 20 h coculture; for diploid frequency (%) / average (diploid colonies): GPCR strain GEN47 HIS; for average (diploid colonies): dilution 500, mean of Rep1-3
# Nc Ste2 GPCR = assay type: cell-based, Neurospora crassa
# [2] = test system: empty (strain lacking a GPCR); assay type: cell-based, Saccharomyces cerevisiae; conditions: Fig. 1D mating matrix; pheromone secreted by MATa strain, MATα strain lacking a GPCR (empty); deep well plate, 20 h coculture
# Fg.Ste2 [3] = assay type: cell-based, Fusarium graminearum; conditions: YPL1 library cocultured with Fg.Ste2 strain GEN87, 20 h, 2 d diploid enrichment, NextSeq 500
# Bc.Ste2 = assay type: cell-based, Botrytis cinerea; conditions: YPL1 library cocultured with Bc.Ste2 strain GEN89, 20 h, 2 d diploid enrichment, NextSeq 500
# Fg.Ste2 [4] = conditions: for barcode qPCR of diploids, Fg.Ste2 x pheromone strain: consortium, individual replicates (n=3), listed as Fo.Pheromone
# Bb.Ste2 [5] = assay type: cell-based, Beauveria bassiana
# F. oxysporum germ tubes = conditions: gradient of 400 μM pheromone against the solvent (50% methanol); 13 h; water-agar; three biological replicates; Fig. 5A
# Experimental: For the B. bassiana and F. oxysporum chemotropism assay and plant infection assays the pheromones were dissolved in 50% (v/v) MeOH to reach a concentration of 4,000 μM.
# Fungal chemotropism was conducted as previously described ([11]). For each compound or combination of compounds tested, 300 hyphal tips were scored. All experiments were performed in three biological replicates.
# [6] = test system: F. oxysporum in tomato roots; test: Quantification of fungal DNA in tomato roots (qPCR); conditions: 3 d after inoculation, washed roots; compared to the untreated infected roots; three biological replicates
structure (smiles),measurement,setting,value
C[C@@H](O)[C@H](NC(=O)[C@H](CS)NC(=O)[C@@H](N)Cc1c[nH]c2ccccc12)C(=O)N[C@@H](Cc1c[nH]c2ccccc12)C(=O)N[C@@H](CCCNC(=N)N)C(=O)NCC(=O)N[C@@H](CCC(N)=O)C(=O)N1CCC[C@H]1C(=O)N[C@@H](CS)C(=O)N[C@@H](Cc1c[nH]c2ccccc12)C(=O)O [Fo] (H-WCTWRGQPCW-OH; N-terminus assumed),Diploid frequency (%),Sc Ste2,0.0%
same,Diploid frequency (%),"Bb.Ste2 [1]; Fig. 1D mating matrix, pheromone secreted by MATa strain, GPCR in MATα strain, deep well plate, three technical plating replicates",0.7%
same,Diploid frequency (%),"Bb.Ste2 [1]; Fig. 1F validation in culture tubes, secreted pheromone, three biological and three technical replicates",4.9%
same,diploid frequency (%),Bb.Ste2 [1]; co-culture replicate 1,4.61%
same,average (diploid colonies),Bb.Ste2 [1]; co-culture replicate 1,22
same,diploid frequency (%),Bb.Ste2 [1]; co-culture replicate 2,3.74%
same,average (diploid colonies),Bb.Ste2 [1]; co-culture replicate 2,17.67
same,diploid frequency (%),Bb.Ste2 [1]; co-culture replicate 3,6.44%
same,average (diploid colonies),Bb.Ste2 [1]; co-culture replicate 3,31.33
same,Diploid frequency (%),Nc Ste2 GPCR,0.0%
same,Diploid frequency (%),[2],0.1%
same,"Enrichment after mating, reads per million minus library before coculture",Fg.Ste2 [3],"> 340,000 RPM"
same,"Enrichment after mating, reads per million minus library before coculture",Bc.Ste2,"> 340,000 RPM"
same,"barcode qPCR of diploids, Fg.Ste2 x pheromone strain",Fg.Ste2 [4]; SC-AS/Urea,0.002 and 0.005 and 0.018
same,"barcode qPCR of diploids, Fg.Ste2 x pheromone strain",Fg.Ste2 [4]; SC,0.005 (2×) and 0.013
same,diploid barcode qPCR signal relative to control (2^-dCt),"Fg.Ste2 [4]; section A4, (GPCR strain) Fg, mean of Bio1-3",0.118
same,diploid barcode qPCR signal relative to control (2^-dCt),"Fg.Ste2 [4]; section A4, column Fg, replicate Bio1",0.012
same,diploid barcode qPCR signal relative to control (2^-dCt),"Fg.Ste2 [4]; section A4, column Fg, replicate Bio2",0.1
same,diploid barcode qPCR signal relative to control (2^-dCt),"Fg.Ste2 [4]; section A4, column Fg, replicate Bio3",0.242
same,diploid barcode qPCR signal relative to control (2^-dCt),"Fg.Ste2 [4]; section Cm, (GPCR strain) Fg, mean of Bio1-3",0.038
same,diploid barcode qPCR signal relative to control (2^-dCt),"Fg.Ste2 [4]; section Cm, column Fg, replicate Bio1",0.014
same,diploid barcode qPCR signal relative to control (2^-dCt),"Fg.Ste2 [4]; section Cm, column Fg, replicate Bio2",0.066
same,diploid barcode qPCR signal relative to control (2^-dCt),"Fg.Ste2 [4]; section Cm, column Fg, replicate Bio3",0.033
same,diploid barcode qPCR signal relative to control (2^-dCt),"Fg.Ste2 [4]; section SC, (GPCR strain) Fg, mean of Bio1-3",0.0075
same,diploid barcode qPCR signal relative to control (2^-dCt),"Fg.Ste2 [4]; section SC, column Fg, replicate Bio1",0.005
same,diploid barcode qPCR signal relative to control (2^-dCt),"Fg.Ste2 [4]; section SC, column Fg, replicate Bio2",0.005
same,diploid barcode qPCR signal relative to control (2^-dCt),"Fg.Ste2 [4]; section SC, column Fg, replicate Bio3",0.013
same,diploid barcode qPCR signal relative to control (2^-dCt),"Fg.Ste2 [4]; section Scramble, (GPCR strain) Fg, mean of Bio1-3",0.0276
same,diploid barcode qPCR signal relative to control (2^-dCt),"Fg.Ste2 [4]; section Scramble, column Fg, replicate Bio1",0.025
same,diploid barcode qPCR signal relative to control (2^-dCt),"Fg.Ste2 [4]; section Scramble, column Fg, replicate Bio2",0.022
same,diploid barcode qPCR signal relative to control (2^-dCt),"Fg.Ste2 [4]; section Scramble, column Fg, replicate Bio3",0.036
same,diploid barcode qPCR signal relative to control (2^-dCt),Bb.Ste2 [5],0
same,Chemotropic response in F. oxysporum germ tubes,F. oxysporum germ tubes,significant chemotropic response
same,"Fungal biomass in inoculated tomato roots (qPCR of Fol4287 actin gene, 2^−ΔΔCt, normalized to tomato gapdh)",[6],significant reduction in fungal biomass

# — article PMC12582325 (Proceedings of the National Academy of Sciences of the …, 2025)
